The source made the active and inactive calls.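 How the source made its calls: active means EC50 no more than a set limit of log units above the highest dose; inactive means the rest.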 Where only a bound is given, the exact number is not on record here.

The target in the experiment is S. pyogenes SKKanGAS, kanamycin survival, BacTiterGlo, 6 h. As to the kind of experiment: SKKanGAS survival reduction under kanamycin, dose response, streptokinase promoter inhibitor project, SKKanGAS strain, luminescence, dose confirmation (AID 1902).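 Further: lower survival reflects blocked streptokinase promoter driving kanamycin resistance gene.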
Turning to `Cc1cc(C(C)(C)C)cc(C)c1COC(=O)c1cccnc1`, the EC50 was 3.25 µM.
Then `CN1/C(=C\C(=O)Nc2ccc(Cl)cc2)C(C)(C)c2ccccc21`, with 8.64 µM; and `Cc1n[nH]c(C)c1CCCOc1ccccc1`, with 5.14 µM.
With `O=c1cc(-c2ccccc2)nc2c(-c3ccccc3)c(C(F)(F)F)[nH]n12` the figure was 3.23 µM; with `C/C(=N\N=C(/N)SC1CC(=O)N(c2ccc(Cl)c(Cl)c2)C1=O)c1cccs1` (centres undefined), 2.13 µM; with `OC(c1ccc(OCc2ccccc2)cc1)c1nnc(-c2ccccc2)o1` (centres undefined), 13.4 µM.
In the case of `CCc1cccc2c(C(=O)COC(=O)c3ccc([N+](=O)[O-])s3)c[nH]c12`, the EC50 is 0.735 µM.
As to `CC1C(=O)C(C)C(c2cc(Cl)ccc2O)NC1c1cc(Cl)ccc1O` (centres undefined), the EC50 was 2.32 µM.
With `COCC1CCN(C(=O)CCc2nnc(C3(c4ccc(Cl)cc4)CCC3)o2)C1` (centres undefined) the figure was > 15 µM (inactive); with `Fc1ccc(N2CCN(Cc3cn[nH]c3-c3ccccc3)CC2)cc1`, > 15 µM (inactive); with `[O-][n+]1cccc2c(Br)cc(Br)c(O)c21`, 0.55 µM.
Then `Cc1cccc(/C=N/NC(=O)c2ccc3c(c2)OCCO3)c1O`, with 4.39 µM.
On to `COc1ccc(Cl)cc1C(Nc1cccnc1)c1ccc2cccnc2c1O` (centres undefined), for which the EC50 was 6.28 µM.
Then `Cc1cc(Nc2ccccc2)n(-c2nc3ccccc3[nH]2)n1`, with 2.1 µM; and `Oc1c(Br)cc(Br)cc1Oc1ccc(Br)cc1Br`, with 1.77 µM.
With `COc1ccc2c(C)nc(Nc3nc(-c4ccccc4)cc(=O)[nH]3)nc2c1`, the EC50 was 2.75 µM.
In the case of `CC(=O)C(=Nc1ccc(Cl)cc1Cl)NNc1cccc(Cl)c1`, the EC50 is 5.07 µM.
Then `O=c1[nH]c(CSc2ncnc3sccc23)nc2ccccc12`, with 2.25 µM; and `O=C(CSc1ccccn1)N/N=C/c1cc([N+](=O)[O-])ccc1O`, with 1.04 µM.
With `COc1ccc2cc(C(=O)NCc3ccccc3)c(=Nc3ccc(C(=O)O)cc3)oc2c1` the figure was 3.83 µM.
For `CCOC(=O)C1=C(Cc2ccc(C)cc2)C(=O)c2ccccc2C1=O`, the concentration giving a half-maximal response (EC50) was 4.64 µM.
With `CCOC(=O)C1=C(C)N=c2s/c(=C/c3ccc(OCC(=O)O)c(OC)c3)c(=O)n2C1c1ccc(Cl)cc1` (centres undefined), the EC50 was 5 µM.
On to `Cc1ncc(CO)c(/C=N/NC(=S)Nc2ccc(Cl)c(Cl)c2)c1O`, for which the EC50 is 5.9 µM.
On to `CCCCCc1ccc(OCCOCCn2c[n+](C)c3ccccc32)c(CCCCC)c1`, for which the EC50 is 5.79 µM.
Take `O=C(COc1ccc(Cl)cc1Cl)Nc1ccc(-c2ccc(N3CCOCC3)nn2)cc1`: the EC50 was > 15 µM (inactive).
Then `O=C(CSc1nc2ccccc2c(=O)n1NC(=O)c1ccccc1)c1ccc(Cl)cc1`, with 11.3 µM; and `O=C(NNC1=Nc2cccc3cccc1c23)c1ccc(Br)cc1`, with 0.22 µM.
In the case of `CCCCCC(=O)Cc1cc(O)cc2c1C(=O)Oc1cc(O)c(C(=O)O)c(CCCCC)c1O2`, the EC50 was 6.67 µM.
With `CCCOc1ccc(C2C(C(=O)c3cc4ccccc4o3)=C(O)C(=O)N2c2cc(C)on2)cc1OC` (centres undefined) the figure was 1.98 µM.
Then `O[C@@H]1CCCN2CCc3c([nH]c4ccccc34)[C@H]12`, with > 15 µM (inactive).
Regarding `O=C(C1CCCCC1)N1CCC(c2nc3c(nnn3Cc3c(F)cccc3Cl)c(=O)[nH]2)CC1`, the EC50 is 3.79 µM.
On to `COC(=O)c1sc(-c2ccc(C(C)(C)C)cc2)cc1NC(=O)CSCC(=O)O`, for which the EC50 is 3.91 µM.
With `CNC(=O)C(=O)NCC1OCCN1S(=O)(=O)c1ccc(OC)c(OC)c1` (centres undefined) the figure was > 15 µM (inactive); with `Cc1nc(N)sc1-c1csc(N(C)c2ccc(O)cc2)n1`, 3.57 µM; with `Oc1c(N=NC(=S)Nc2ccccc2F)c2ccccc2n1Cc1cccc(Cl)c1`, 0.658 µM.
With `O=C(CNC(=O)c1ccco1)NCc1nc2ccccc2[nH]1` the figure was > 15 µM (inactive).
As to `CCCCNC(=O)c1sc(=S)n2c1[nH]c(=O)c1ccccc12`, the EC50 is 9.08 µM.
Turning to `O=c1[nH]c2ccc(Cl)cc2c(-c2ccccc2)c1SC(=S)N1CCOCC1`, the 50% effective concentration (EC50) is 0.697 µM.
On to `Cc1noc(C)c1C(=O)Nc1nccs1`, for which the EC50 is > 15 µM (inactive).
As to `N#Cc1c(N)nc(Sc2ccc(Cl)cc2)c(C#N)c1-c1ccccc1Cl`, the EC50 was 6.03 µM.
Regarding `CCOC(=O)c1cnn(-c2nc(-c3cccc(F)c3)cs2)c1C(F)(F)F`, the EC50 was 12.3 µM.
In the case of `Cc1cc(NCc2ccccn2)n2nc(C)c(-c3ccc(Cl)cc3)c2n1`, the EC50 was 4.36 µM.
In the case of `CC(C)(C)c1ccc(-c2noc(-c3ccc4c(c3)CCO4)n2)cc1`, the EC50 is 7.95 µM.
With `Cc1nn(C(=O)c2cccnc2)c(C)c1Sc1ccc(Br)cc1` the figure was 4.36 µM; with `Cc1cc(/C=C2\SC(=S)NC2=O)c(C)n1-c1ccc(O)cc1`, 1.1 µM.
With `O=c1[nH]c(=O)n([C@H]2C[C@H](O)[C@@H](CO)O2)cc1F` the figure was 0.689 µM.
Then `O=C(CCc1ccccc1)Nc1nnc(-c2ccc3c(c2)CCCC3)o1`, with 1.59 µM; and `C/C(=N\NC(=O)c1cccc(Br)c1)c1ccccn1`, with 0.74 µM.
Turning to `Oc1ccccc1-c1nc2c3ccccc3c3ccccc3c2[nH]1`, the 50% effective concentration (EC50) is 2.43 µM.
Then `CCCC(Oc1ccc(Br)cc1)c1nc2c3cc(OC)c(OC)cc3nc(=S)n2[nH]1` (centres undefined), with 0.145 µM.
As to `COC(=O)c1cccc(NC(=S)NCc2ccc(Cl)cc2)c1`, the EC50 was 9.26 µM.
With `O=C(NNC(=S)NC(=O)c1cccc([N+](=O)[O-])c1)c1ccc(Br)cc1` the figure was 2.07 µM.
Turning to `CC(C)=CCc1c(O)cc2oc3c(CC=C(C)C)c(O)c(O)c(CC=C(C)C)c3c(=O)c2c1O`, the EC50 is 0.828 µM.
Then `Cc1nn(-c2ccccc2)c(Cl)c1C1C(C#N)=C(N)Oc2c1c(=O)oc1ccccc21` (centres undefined), with 0.112 µM.
With `CC(NC(=O)Cn1c(=O)[nH]c2ccsc2c1=O)C12CC3CC(CC(C3)C1)C2` (centres undefined) the figure was > 15 µM (inactive).
Then `Cc1ccc(O)c(NC(=S)NC(=O)c2ccc(-c3ccc(Cl)cc3)o2)c1`, with 0.221 µM; and `COc1ccc(C(=O)NCC(=O)OCC(=O)N2N=C(c3ccc(Cl)cc3)CC2c2ccco2)cc1OC` (centres undefined), with 15.6 µM.
For the molecule `O=C(O)CCCN1C(=O)/C(=C/c2cn(-c3ccccc3)nc2-c2cccs2)SC1=S`, the EC50 is 2.72 µM.
With `Cc1[nH]c2ccccc2c1C(=O)COC(=O)c1ccc2c(=O)n3c(nc2c1)CCC3`, the EC50 is 1.52 µM.
With `COc1ccc([C@H]2Oc3cc(O)cc(O)c3C(=O)C2[C@@H]2C(=O)c3c(O)cc(O)cc3O[C@@H]2c2ccc(OC)cc2)cc1` (some centres undefined) the figure was 1.61 µM; with `O=C(NNc1nc(-c2ccc(F)cc2)cs1)c1ccccc1`, 2.17 µM.
As to `CCc1ccc(NC(=O)c2ccc(F)c(S(=O)(=O)NCC3COc4ccccc4O3)c2)cc1` (centres undefined), the 50% effective concentration (EC50) is 5.34 µM.
With `O=C1Nc2cc(C(=O)N3CCN(c4ccccn4)CC3)ccc2S/C1=C\c1ccccc1` the figure was 3.35 µM; with `O=C(Nc1ccc(Cl)c(Cl)c1)C1CC(=O)N(c2ccc(Br)cc2)C1` (centres undefined), 4.5 µM; with `CNc1ccc2oc(C[C@H]3O[C@@]4(CC[C@H]3C)O[C@H]([C@H](C)C(=O)c3ccc[nH]3)[C@H](C)C[C@H]4C)nc2c1C(=O)O`, below 0.06 µM.
With `S=C1NC[C@H](CC2CCCCC2)N1CC1CCCCC1` the figure was 7.69 µM; with `CCOC(=O)c1sc2nc3c(SCC(=O)O)cc(C(=O)c4cc(F)ccc4O)cn3c(=O)c2c1C`, 2.11 µM.
In the case of `N#Cc1c(NC(=O)CSc2n[nH]c(Cc3ccccc3)n2)oc(-c2ccccc2)c1-c1ccccc1`, the EC50 was 4.93 µM.
For the molecule `O=[N+]([O-])c1cc(S(=O)(=O)Nc2ccccc2)ccc1N1CCN(c2ccccc2)CC1`, the EC50 was 7.21 µM.
As for `CCCCC(CC)C(=O)Oc1ccc(O)c(C(C)(C)C)c1` (centres undefined), the 50% effective concentration (EC50) is 2.89 µM.
Turning to `N#CCSc1nc2ccc(N3CCOCC3)cc2c(=O)n1CCc1ccccc1`, the EC50 is 3.71 µM.
As to `O=C(NNC1=C(C(=O)C(F)(F)F)CCC1)c1ccc(Br)cc1`, the EC50 was 0.926 µM.
With `Fc1ccccc1N=C1NN=C(c2ccccc2)CS1` the figure was 8.17 µM.
With `COc1ccc(CC(=O)N/N=C/c2cc([N+](=O)[O-])cc(Br)c2O)cc1`, the EC50 was 4.91 µM.
For `CCOC(=O)c1c(N)sc(C(O)(C(F)(F)F)C(F)(F)F)c1-c1ccc(Cl)cc1`, the EC50 was 3.17 µM.
For the molecule `CCCCn1c(CCCNC(=O)c2ccco2)nc2ccccc21`, the EC50 is > 15 µM (inactive).
With `CN1C(=O)NC(c2ccccc2)(C(F)(F)F)S/C1=C(/C#N)c1nnc(N2CCOCC2)n1-c1ccccc1` (centres undefined), the EC50 is > 15 µM (inactive).
With `CCCCN(CCCC)c1nc(-c2ccncc2)nc2ccccc12` the figure was 4.24 µM; with `O=C1C2=C(NC(=S)NC2c2ccc(Cl)cc2)NC(c2ccc(Cl)cc2)N1c1ccc(Cl)cc1` (centres undefined), 1.93 µM.
Turning to `Cc1ccc(NC(=S)c2nc3ccccc3[nH]2)cc1`, the EC50 is 1.08 µM.
In the case of `O=c1cc(C(F)(F)F)[nH]c2c(C(F)(F)F)cccc12`, the EC50 is 2.34 µM.
`O=C1/C(=C/c2cccnc2)SC(=NCc2ccccc2)N1Cc1ccccc1`: the EC50 is 8.09 µM.
With `Cc1cc(C)nc(N/N=C/c2cc(Br)ccc2O)n1` the figure was 12.9 µM; with `CC1(C)Oc2ccc3ccc(=O)oc3c2/C(=C/NNC(N)=S)C1=O`, 7.51 µM; with `COc1ccc(C(=O)NC(=S)NNC(=O)[C@H]2C[C@@H]2c2ccccc2)cc1OC`, 0.914 µM.
For `COc1ccc(CCN2CC(C(=O)NCCc3ccccn3)CCC2=O)cc1` (centres undefined), the EC50 is > 15 µM (inactive).
With `COc1cnc(-c2ccccn2)nc1Oc1c(C)cccc1C` the figure was 0.202 µM; with `Clc1ccc2c(N/N=C/c3ccc(Br)cc3)ccnc2c1`, 3.14 µM; with `Cc1ccc(C(=O)n2c(N)nc3ccccc32)cc1`, 4.29 µM.
For the molecule `Oc1cccc(NC(=S)N=Nc2c(O)[nH]c3ccc(Br)cc23)c1`, the EC50 was 2.33 µM.
With `O=c1c2c(nc3c(-c4ccc(Cl)cc4)c[nH]n13)CCCC2` the figure was 4.55 µM.
With `COc1cc(OC)cc(C(=O)NC(=S)N2CCN(c3ccc(C(F)(F)F)cc3[N+](=O)[O-])CC2)c1` the figure was 1.28 µM.
Turning to `Clc1ccc(-c2n[nH]c3c2CCC3)cc1Cl`, the EC50 is 12.6 µM.
With `COCCCn1c(N)c(C(=O)Nc2ccccc2)c2nc3ccccc3nc21` the figure was 11.8 µM.

The values are drawn from PubChem BioAssay AID1902 (Broad Institute, 2009).
